How the values were obtained:
[1] = biological target: IL-17A(FLAG-Tagged): IL-17RA(His-Tagged) (Homo sapiens, UniProt Q16552, K93Q); assay: IL-17A(FLAG-Tagged): IL-17RA(His-Tagged) Binding Disruption Eu-HTRF Assay, Protocol 1; details: Protocol 1, FLAG tagged IL-17A 2.5 nM; simple average if tested more than once
Source text: An antibody directed against the FLAG tag of IL-17A (SEQ ID NO: 1) is labeled with the HTRF donor chromophore (Europium-cryptate). IL-17A is present as a dimer that is “locked into” this quaternary structure due to the formation of loop-spanning […] disulfide bridges. The construct of IL-17RA used in the assay excludes the […] portion of the receptor and is fused to a C-terminal 10×His tag (SEQ ID NO:2). An antibody directed against the His tag of the IL-17RA chimera is labeled with the HTRF acceptor chromophore (“D2”). The fluorescence-resonance energy transfer (FRET) depends on the vicinity of the donor chromophore to the acceptor, and interruption of the binding between the IL-17A and IL-17RA causes the reduction/loss of FRET. Therefore, this assay allows to evaluate the compound effect on the binding IL-17A and IL-17RA by monitoring the fluorescence intensity of donor vs acceptor. The assay was run using either Protocol 1 or Protocol 2 as described below.
Protocol 1. 40 nl of 2-fold serial diluted compound solution for total 22 dilution points is added into each well of a 1536-well, white, low-volume, non-binding plate (Greiner #782904), then 2 μl of FLAG tagged IL-17A at 2× final concentration (2.5 nM) in solution of PBS+0.01% Triton-X100 is added to each well. The assay plate is briefly centrifuged then incubated for 1 h at rt. A mixed solution is prepared containing 2×5 nM 10HIS×IL-17RA, 2×2.5 nM Eu-anti-FLAG (CISBIO), 2×5 nM D2-anti-HIS (CISBIO) in PBS+0.01% Triton-X100+200 mM Potassium Fluoride (Sigma 60238) and 2 μl of mix is added to each well of the assay plate. The plate is briefly centrifuged then incubated for 2 h at rt. The HTRF intensities at the wavelength of donor (620 nm) and acceptor (665 nm) are measured using BMG Pherastar. The ratio between intensities at two wavelengths is calculated and plotted against the compound concentration and the data is fitted to a one-site competition model to yield IC50 of the compound.

[2] = system: IL-17A-induced G-CSF production in human normal keratinocyte (NHK); assay: NHK Assay: IL-17A-induced G-CSF production in human normal keratinocyte; type: cell-based; details: 24 h, IL-17A 5 ng/mL, simple average if tested more than once
Description: IL-17A acts directly on keratinocytes through binding to dimeric receptor IL-17RA/RC and drives the production of a number of inflammatory mediators known to be elevated in psoriasis lesional tissue. IL-17A small molecule inhibitors that block the IL-17A to interact with IL-17R would inhibit the IL-17A signaling in its targeted cells such as keratinocytes. The compound functional activity is evaluated for its impact on IL-17A-induced G-CSF production in human normal keratinocyte (NHK).
Adult normal human keratinocytes are cultured in keratinocyte growth medium (Lonza) in a flask till reaching ˜90% confluence, then cells are transferred to a 384-well plate at density of 3000-4000 cell/well. Recombinant human IL-17A (Gibco PHC9174) is pre-incubated with titrated compound or DMSO for 1 h at rt then added to the cell culture plate. The final concentration of IL-17A is 5 ng/mL and DMSO is 0.2%, in the culture containing 5% FBS. Cells are cultured/treated for 24 h at 37° C. Supernatants are collected and G-CSF production is measured through HTRF technology using Human G-CSF Kit (CisBio). G-CSF concentration was extrapolated from the standard curve and IC50 is determined using GraphPad Prism. Cell viability is also evaluated using CellTiter-Glo kit (Promega) and effect of compound on cell viability is compared to DMSO control.

UniProt Q16552, sequence (Q16552 with tags, fused parts or gaps K93Q): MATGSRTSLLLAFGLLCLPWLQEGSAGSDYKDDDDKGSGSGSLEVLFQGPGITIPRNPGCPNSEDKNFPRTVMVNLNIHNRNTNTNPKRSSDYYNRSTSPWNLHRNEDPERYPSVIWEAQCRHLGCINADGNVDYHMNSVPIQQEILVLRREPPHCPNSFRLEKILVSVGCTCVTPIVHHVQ

Cc1nonc1C(=O)N[C@@H](COC(C)(C)C(F)(F)F)c1nc2cc([C@@H](C3CC3)N3CC4(CC4)NC3=O)ccc2[nH]1 [Example 87, N—((R)-1-(5-((R)-Cyclopropyl(5-oxo-4,6-diazaspiro[2.4]heptan-6-yl)methyl)-1H-benzo[d]imidazol-2-yl)-2-((1,1,1-trifluoro-2-methylpropan-2-yl)oxy)ethyl)-4-methyl-1,2,5-oxadiazole-3-carboxamide]
IC50 [1]: < 50 nM
IC50 ([2]; Homo sapiens, Keratinocyte): < 50 nM

[2H]C1([2H])[C@@H](C(F)(F)F)NC(=O)N1[C@H](COC1CC1)c1ccc2[nH]c([C@H](COC(C)(C)C(F)(F)F)NC(=O)c3nonc3C)nc2c1 (relative stereo) [Example 59, N—((R*)-1-(5-((S*)-2-Cyclopropoxy-1-((S*)-2-oxo-4-(trifluoromethyl)imidazolidin-1-yl-5,5-d2)ethyl)-1H-benzo[d]imidazol-2-yl)-2-((1,1,1-trifluoro-2-methylpropan-2-yl)oxy)ethyl)-4-methyl-1,2,5-oxadiazole-3-carboxamide]
IC50 [1]: < 50 nM
IC50 ([2]; Homo sapiens, Keratinocyte): < 50 nM

CC(C)(OC[C@H](NC(=O)c1nonc1C1CC1)c1nc2nc(CN3C[C@@H](C(F)(F)F)NC3=O)ccc2[nH]1)C(F)(F)F (relative stereo) [Example 39, 4-Cyclopropyl-N—((R*)-1-(5-(((S*)-2-oxo-4-(trifluoromethyl)imidazolidin-1-yl)methyl)-1H-imidazo[4,5-b]pyridin-2-yl)-2-((1,1,1-trifluoro-2-methylpropan-2-yl)oxy)ethyl)-1,2,5-oxadiazole-3-carboxamide]
IC50 [1]: > 100 nM
IC50 ([2]; Homo sapiens, Keratinocyte): > 100 nM

Cc1nonc1C(=O)NC(COC(C)(C)C(F)(F)F)c1nc2cc([C@@H](COC3CC3)N3CC(F)(F)CNC3=O)ccc2[nH]1 (single isomer, unassigned) [Example 56, N—((R*)-1-(5-((S)-2-Cyclopropoxy-1-(5,5-difluoro-2-oxotetrahydropyrimidin-1(2H)-yl)ethyl)-1H-benzo[d]imidazol-2-yl)-2-((1,1,1-trifluoro-2-methylpropan-2-yl)oxy)ethyl)-4-methyl-1,2,5-oxadiazole-3-carboxamide]
IC50 [1]: < 50 nM
IC50 ([2]; Homo sapiens, Keratinocyte): < 50 nM

Cc1nonc1C(=O)N[C@@H](COC(C)(C)C(F)(F)F)c1nc2cc([C@H](N3CC(F)(F)CNC3=O)C3(C#N)CC3)ccc2[nH]1 (relative stereo) [Example 40, N—((R*)-1-(5-((S*)-(1-Cyanocyclopropyl)(5,5-difluoro-2-oxotetrahydropyrimidin-1(2H)-yl)methyl)-1H-benzo[d]imidazol-2-yl)-2-((1,1,1-trifluoro-2-methylpropan-2-yl)oxy)ethyl)-4-methyl-1,2,5-oxadiazole-3-carboxamide]
IC50 [1]: 50 to 100 nM
IC50 ([2]; Homo sapiens, Keratinocyte): > 100 nM

[2H]C1([2H])[C@H](C(F)(F)F)NC(=O)N1[C@@H](c1ccc2[nH]c([C@@H](NC(=O)c3nonc3C)[C@@H](C)O[C@H](C)C(F)(F)F)nc2c1)C1CC1 (relative stereo) [Example 8, N-((1R*,2R)-1-(5-((R)-Cyclopropyl((R*)-2-oxo-4-(trifluoromethyl)imidazolidin-1-yl-5,5-d2)methyl)-1H-benzo[d]imidazol-2-yl)-2-(((R)-1,1,1-trifluoropropan-2-yl)oxy)propyl)-4-methyl-1,2,5-oxadiazole-3-carboxamide]
IC50 [1]: 50 to 100 nM
IC50 ([2]; Homo sapiens, Keratinocyte): > 100 nM

CC(C)(OC[C@H](NC(=O)c1nonc1C1CC1)c1nc2cc(CN3CC(C(F)(F)F)NC3=O)ccc2[nH]1)C(F)(F)F (stereo in doubt) [Example 33, 4-Cyclopropyl-N—((R)-1-(5-(((R*)-2-oxo-4-(trifluoromethyl)imidazolidin-1-yl)methyl)-1H-benzo[d]imidazol-2-yl)-2-((1,1,1-trifluoro-2-methylpropan-2-yl)oxy)ethyl)-1,2,5-oxadiazole-3-carboxamide]
IC50 [1]: 50 to 100 nM
IC50 ([2]; Homo sapiens, Keratinocyte): > 100 nM

CC(C)n1nccc1C(=O)NC(c1nc2cc([C@@H](C3CC3)N3C[C@@H](C(F)(F)F)NC3=O)ccc2[nH]1)[C@@H](C)O[C@@H](C)C(F)(F)F (single isomer, unassigned) [Example 15, N-((1R*,2R)-1-(5-((R)-Cyclopropyl((S)-2-oxo-4-(trifluoromethyl)imidazolidin-1-yl)methyl)-1H-benzo[d]imidazol-2-yl)-2-(((S)-1,1,1-trifluoropropan-2-yl)oxy)propyl)-1-isopropyl-1H-pyrazole-5-carboxamide]
IC50 [1]: < 50 nM
IC50 ([2]; Homo sapiens, Keratinocyte): < 50 nM

CC(C)(OC[C@H](NC(=O)c1nonc1C1CC1)c1nc2nc(CN3C[C@H](C(F)(F)F)NC3=O)ccc2[nH]1)C(F)(F)F (relative stereo) [Example 38, 4-Cyclopropyl-N—((R*)-1-(5-(((R*)-2-oxo-4-(trifluoromethyl)imidazolidin-1-yl)methyl)-1H-imidazo[4,5-b]pyridin-2-yl)-2-((1,1,1-trifluoro-2-methylpropan-2-yl)oxy)ethyl)-1,2,5-oxadiazole-3-carboxamide]
IC50 [1]: < 50 nM
IC50 ([2]; Homo sapiens, Keratinocyte): < 50 nM

COC[C@H](c1ccc2[nH]c(C(COC(C)(C)C(F)(F)F)NC(=O)c3nonc3C)nc2c1)N1C[C@@H](C(F)(F)F)NC1=O (single isomer, unassigned) [Example 31, N—((R*)-1-(5-((S)-2-Methoxy-1-((S)-2-oxo-4-(trifluoromethyl)imidazolidin-1-yl)ethyl)-1H-benzo[d]imidazol-2-yl)-2-((1,1,1-trifluoro-2-methylpropan-2-yl)oxy)ethyl)-4-methyl-1,2,5-oxadiazole-3-carboxamide]
IC50 [1]: < 50 nM
IC50 ([2]; Homo sapiens, Keratinocyte): < 50 nM

Cc1nonc1C(=O)NC(c1nc2cc([C@@H](C3CC3)N3C[C@@H](C(F)(F)F)NC3=O)ccc2[nH]1)[C@@H](C)O[C@@H](C)C(F)(F)F (single isomer, unassigned) [Example 13, N-((1R*,2R)-1-(5-((R)-Cyclopropyl((S)-2-oxo-4-(trifluoromethyl)imidazolidin-1-yl)methyl)-1H-benzo[d]imidazol-2-yl)-2-(((S)-1,1,1-trifluoropropan-2-yl)oxy)propyl)-4-methyl-1,2,5-oxadiazole-3-carboxamide]
IC50 [1]: < 50 nM
IC50 ([2]; Homo sapiens, Keratinocyte): < 50 nM

COCC(c1ccc2[nH]c([C@H](COC(C)(C)C(F)(F)F)NC(=O)c3nonc3C)nc2c1)N1CC(C)(C)NC1=O (single isomer, unassigned) [Example 49, N—((R)-1-(5-((S*)-1-(4,4-Dimethyl-2-oxoimidazolidin-1-yl)-2-methoxyethyl)-1H-benzo[d]imidazol-2-yl)-2-((1,1,1-trifluoro-2-methylpropan-2-yl)oxy)ethyl)-4-methyl-1,2,5-oxadiazole-3-carboxamide]
IC50 [1]: > 100 nM
IC50 [2]: > 100 nM

Cc1nonc1C(=O)NC(c1nc2nc([C@@H](C3CC3)N3CC(F)(F)CNC3=O)ccc2[nH]1)[C@@H](C)O[C@H](C)C(F)(F)F (single isomer, unassigned) [Example 19, N-((1R*,2R)-1-(5-((R)-Cyclopropyl(5,5-difluoro-2-oxotetrahydropyrimidin-1(2H)-yl)methyl)-1H-imidazo[4,5-b]pyridin-2-yl)-2-(((R)-1,1,1-trifluoropropan-2-yl)oxy)propyl)-4-methyl-1,2,5-oxadiazole-3-carboxamide]
IC50 [1]: < 50 nM
IC50 ([2]; Homo sapiens, Keratinocyte): 50 to 100 nM
